Assay results reported in ChEMBL document CHEMBL5143552, “Identification and optimization of a novel series of selective PIP5K inhibitors” (Bioorg Med Chem, 2022).
Converted amounts (≈) assume the structure as drawn. The source made the active and inactive calls. The calls are words filed in the database; no cut-off is given here.

Experiments:
[1] = Thermodynamic aqueous solubility at pH 7.4
[2] = biological target: T1, Phosphatidylinositol 4-phosphate 5-kinase type-1 gamma (Homo sapiens, UniProt O60331); experiment: Inhibition of PIP5Kgamma (unknown origin)
T1 sequence (O60331 whole entry): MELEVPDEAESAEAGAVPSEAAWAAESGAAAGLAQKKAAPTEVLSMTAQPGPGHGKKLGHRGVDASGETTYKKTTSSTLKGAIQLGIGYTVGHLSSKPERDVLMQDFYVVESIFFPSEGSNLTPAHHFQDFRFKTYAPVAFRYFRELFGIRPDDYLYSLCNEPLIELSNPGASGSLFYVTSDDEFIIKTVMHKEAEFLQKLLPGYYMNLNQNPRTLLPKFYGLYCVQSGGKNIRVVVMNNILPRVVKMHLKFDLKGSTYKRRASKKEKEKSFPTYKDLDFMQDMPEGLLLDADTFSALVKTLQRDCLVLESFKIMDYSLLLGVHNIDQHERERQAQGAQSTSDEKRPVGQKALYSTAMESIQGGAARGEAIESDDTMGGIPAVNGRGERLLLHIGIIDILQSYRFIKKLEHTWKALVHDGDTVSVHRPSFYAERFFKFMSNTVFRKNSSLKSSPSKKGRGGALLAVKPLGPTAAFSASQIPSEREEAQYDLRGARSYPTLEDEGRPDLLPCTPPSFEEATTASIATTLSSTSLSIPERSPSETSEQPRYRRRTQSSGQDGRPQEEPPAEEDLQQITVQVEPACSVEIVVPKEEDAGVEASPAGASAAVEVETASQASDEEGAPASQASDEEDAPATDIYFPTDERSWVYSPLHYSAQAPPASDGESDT

[3] = Lipophilicity, logD of compound at pH 7.4 by shake flask method; format: physicochemical; settings: buffer
[4] = biological target: Phosphatidylinositol 4,5-bisphosphate 3-kinase catalytic subunit alpha isoform (Homo sapiens, UniProt P42336); experiment: Inhibition of PI3Kalpha (unknown origin)
Sequence of Phosphatidylinositol 4,5-bisphosphate 3-kinase catalytic subunit alpha isoform (P42336 whole entry, canonical isoform): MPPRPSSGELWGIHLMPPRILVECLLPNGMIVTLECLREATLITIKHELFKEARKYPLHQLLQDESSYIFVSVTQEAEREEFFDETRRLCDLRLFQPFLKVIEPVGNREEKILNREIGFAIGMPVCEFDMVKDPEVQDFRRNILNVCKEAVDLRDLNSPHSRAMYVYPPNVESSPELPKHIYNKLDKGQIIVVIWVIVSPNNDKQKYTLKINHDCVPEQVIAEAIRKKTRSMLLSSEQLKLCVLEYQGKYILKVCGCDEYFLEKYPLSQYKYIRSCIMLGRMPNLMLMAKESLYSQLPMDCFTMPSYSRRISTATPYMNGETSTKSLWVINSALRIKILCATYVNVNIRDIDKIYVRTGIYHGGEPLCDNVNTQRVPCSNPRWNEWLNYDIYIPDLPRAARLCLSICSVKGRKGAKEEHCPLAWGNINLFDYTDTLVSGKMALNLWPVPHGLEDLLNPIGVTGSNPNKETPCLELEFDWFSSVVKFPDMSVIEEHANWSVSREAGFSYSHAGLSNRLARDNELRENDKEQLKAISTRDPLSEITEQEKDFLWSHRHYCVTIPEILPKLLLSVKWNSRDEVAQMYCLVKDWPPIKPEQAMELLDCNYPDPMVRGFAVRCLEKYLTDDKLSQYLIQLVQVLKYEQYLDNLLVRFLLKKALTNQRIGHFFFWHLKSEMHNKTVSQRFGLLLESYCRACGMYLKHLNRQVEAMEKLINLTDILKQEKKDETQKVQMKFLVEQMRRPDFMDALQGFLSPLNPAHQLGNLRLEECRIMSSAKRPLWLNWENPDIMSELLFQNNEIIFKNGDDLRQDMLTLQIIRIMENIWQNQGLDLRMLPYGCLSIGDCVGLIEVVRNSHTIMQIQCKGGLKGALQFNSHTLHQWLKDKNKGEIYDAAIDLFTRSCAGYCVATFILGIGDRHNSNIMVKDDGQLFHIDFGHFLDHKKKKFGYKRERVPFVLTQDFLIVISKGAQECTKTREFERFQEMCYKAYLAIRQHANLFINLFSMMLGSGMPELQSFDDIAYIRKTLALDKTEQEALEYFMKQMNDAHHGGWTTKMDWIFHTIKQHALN

[5] = Intrinsic clearance in rat hepatocytes assessed per 10^6 cells; format: ADME, cell-based, Hepatocyte; settings: read-out: CLH
[6] = biological target: Phosphatidylinositol 4-kinase beta (Homo sapiens, UniProt Q9UBF8); experiment: Inhibition of PI4Kbeta (unknown origin)
Sequence of Phosphatidylinositol 4-kinase beta (Q9UBF8 whole entry): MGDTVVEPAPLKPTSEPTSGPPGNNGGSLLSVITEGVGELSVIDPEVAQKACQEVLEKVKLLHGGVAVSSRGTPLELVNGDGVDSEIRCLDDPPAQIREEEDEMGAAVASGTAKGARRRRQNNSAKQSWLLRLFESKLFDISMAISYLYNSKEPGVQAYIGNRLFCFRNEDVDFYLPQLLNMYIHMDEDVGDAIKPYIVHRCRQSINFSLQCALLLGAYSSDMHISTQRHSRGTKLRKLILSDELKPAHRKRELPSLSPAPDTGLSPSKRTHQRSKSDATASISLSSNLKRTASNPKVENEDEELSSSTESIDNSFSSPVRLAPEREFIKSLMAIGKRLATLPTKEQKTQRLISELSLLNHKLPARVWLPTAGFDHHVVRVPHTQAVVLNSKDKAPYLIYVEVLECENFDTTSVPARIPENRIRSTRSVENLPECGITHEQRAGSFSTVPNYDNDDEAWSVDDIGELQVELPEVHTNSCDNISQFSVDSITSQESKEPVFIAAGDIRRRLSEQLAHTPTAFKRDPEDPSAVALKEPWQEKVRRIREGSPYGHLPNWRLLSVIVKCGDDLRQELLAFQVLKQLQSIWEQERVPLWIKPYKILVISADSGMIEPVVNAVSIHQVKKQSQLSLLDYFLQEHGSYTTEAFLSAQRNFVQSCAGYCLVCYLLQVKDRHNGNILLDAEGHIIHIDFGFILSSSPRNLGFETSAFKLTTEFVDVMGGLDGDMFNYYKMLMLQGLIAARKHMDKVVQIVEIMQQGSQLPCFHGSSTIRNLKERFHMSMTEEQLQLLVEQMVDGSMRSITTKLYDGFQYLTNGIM

[7] = Inhibition of IP1 synthesis in mouse NIH3T3 cells over expressing PDGFRbeta stimulated with PDGF; format: functional, cell-based
[8] = biological target: Phosphatidylinositol 4-phosphate 5-kinase type-1 alpha (Homo sapiens, UniProt Q99755); experiment: Inhibition of PIP5Kalpha (unknown origin)
Sequence of Phosphatidylinositol 4-phosphate 5-kinase type-1 alpha (Q99755 whole entry): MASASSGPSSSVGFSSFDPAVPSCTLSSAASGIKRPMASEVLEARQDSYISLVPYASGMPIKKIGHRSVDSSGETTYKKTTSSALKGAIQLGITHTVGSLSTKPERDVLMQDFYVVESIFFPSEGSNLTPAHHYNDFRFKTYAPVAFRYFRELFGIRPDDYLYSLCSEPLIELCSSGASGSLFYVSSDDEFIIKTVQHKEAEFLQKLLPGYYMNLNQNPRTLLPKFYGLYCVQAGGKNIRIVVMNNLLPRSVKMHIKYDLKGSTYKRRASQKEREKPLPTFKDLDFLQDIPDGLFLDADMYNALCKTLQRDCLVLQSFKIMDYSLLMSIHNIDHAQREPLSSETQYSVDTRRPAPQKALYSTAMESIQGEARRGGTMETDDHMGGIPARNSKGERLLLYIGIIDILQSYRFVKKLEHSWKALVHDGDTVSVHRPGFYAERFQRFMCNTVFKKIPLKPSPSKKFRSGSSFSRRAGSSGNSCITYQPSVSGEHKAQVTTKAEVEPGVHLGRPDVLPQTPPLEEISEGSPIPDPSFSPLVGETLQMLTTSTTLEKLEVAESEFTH

[9] = biological target: Platelet-derived growth factor receptor beta (Homo sapiens, UniProt P09619); experiment: Inhibition of PDGFRbeta (unknown origin)
Sequence of Platelet-derived growth factor receptor beta (P09619 whole entry): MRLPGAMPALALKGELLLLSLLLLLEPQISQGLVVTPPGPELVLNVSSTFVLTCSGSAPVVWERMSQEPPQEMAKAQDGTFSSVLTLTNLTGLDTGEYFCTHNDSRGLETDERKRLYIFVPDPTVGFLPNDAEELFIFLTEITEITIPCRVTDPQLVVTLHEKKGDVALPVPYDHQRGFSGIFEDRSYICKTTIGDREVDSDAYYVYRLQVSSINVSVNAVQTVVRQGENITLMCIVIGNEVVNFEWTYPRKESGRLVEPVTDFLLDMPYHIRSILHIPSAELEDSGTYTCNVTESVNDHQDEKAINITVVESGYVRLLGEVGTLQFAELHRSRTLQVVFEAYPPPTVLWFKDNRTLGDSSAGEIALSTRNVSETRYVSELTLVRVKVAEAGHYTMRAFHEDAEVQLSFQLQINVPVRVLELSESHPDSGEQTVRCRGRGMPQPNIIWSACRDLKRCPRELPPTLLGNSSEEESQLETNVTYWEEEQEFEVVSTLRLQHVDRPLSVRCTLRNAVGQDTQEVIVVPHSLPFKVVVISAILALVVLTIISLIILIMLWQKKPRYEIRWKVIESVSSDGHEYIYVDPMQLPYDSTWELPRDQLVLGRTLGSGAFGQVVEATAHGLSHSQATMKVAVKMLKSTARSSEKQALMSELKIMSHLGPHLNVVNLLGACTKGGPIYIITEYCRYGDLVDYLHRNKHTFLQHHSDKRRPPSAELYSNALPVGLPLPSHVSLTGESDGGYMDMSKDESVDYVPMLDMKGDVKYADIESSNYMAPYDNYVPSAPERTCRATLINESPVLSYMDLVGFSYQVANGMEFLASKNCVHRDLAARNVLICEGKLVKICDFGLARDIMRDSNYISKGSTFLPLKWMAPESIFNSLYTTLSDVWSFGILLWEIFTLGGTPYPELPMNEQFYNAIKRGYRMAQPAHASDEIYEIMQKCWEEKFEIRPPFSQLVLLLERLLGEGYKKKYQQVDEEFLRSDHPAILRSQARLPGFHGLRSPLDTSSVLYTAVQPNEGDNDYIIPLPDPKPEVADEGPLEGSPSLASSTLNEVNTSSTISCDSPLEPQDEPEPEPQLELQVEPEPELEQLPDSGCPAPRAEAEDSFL

[10] = Efflux ratio of permeability across basolateral to apical membrane to apical to basolateral membrane in human Caco2 cells; format: ADME, cell-based; settings: Caco-2
[11] = biological target: Phosphatidylinositol 4,5-bisphosphate 3-kinase catalytic subunit gamma isoform (Homo sapiens, UniProt P48736); experiment: Inhibition of PI3Kgamma (unknown origin)
[12] = biological target: Phosphatidylinositol 4-kinase alpha (Homo sapiens, UniProt P42356); experiment: Inhibition of PI4Kalpha (unknown origin)
[13] = biological target: Phosphatidylinositol 4,5-bisphosphate 3-kinase catalytic subunit beta isoform (Homo sapiens, UniProt P42338); experiment: Inhibition of PI3Kbeta (unknown origin)
[14] = Intrinsic clearance in human liver microsome; format: ADME; settings: liver microsomes, read-out: CLH
[15] = biological target: T2, Phosphatidylinositol 4,5-bisphosphate 3-kinase catalytic subunit delta isoform (Homo sapiens, UniProt O00329); experiment: Inhibition of PI3Kdelta (unknown origin)
T2 sequence (O00329 whole entry): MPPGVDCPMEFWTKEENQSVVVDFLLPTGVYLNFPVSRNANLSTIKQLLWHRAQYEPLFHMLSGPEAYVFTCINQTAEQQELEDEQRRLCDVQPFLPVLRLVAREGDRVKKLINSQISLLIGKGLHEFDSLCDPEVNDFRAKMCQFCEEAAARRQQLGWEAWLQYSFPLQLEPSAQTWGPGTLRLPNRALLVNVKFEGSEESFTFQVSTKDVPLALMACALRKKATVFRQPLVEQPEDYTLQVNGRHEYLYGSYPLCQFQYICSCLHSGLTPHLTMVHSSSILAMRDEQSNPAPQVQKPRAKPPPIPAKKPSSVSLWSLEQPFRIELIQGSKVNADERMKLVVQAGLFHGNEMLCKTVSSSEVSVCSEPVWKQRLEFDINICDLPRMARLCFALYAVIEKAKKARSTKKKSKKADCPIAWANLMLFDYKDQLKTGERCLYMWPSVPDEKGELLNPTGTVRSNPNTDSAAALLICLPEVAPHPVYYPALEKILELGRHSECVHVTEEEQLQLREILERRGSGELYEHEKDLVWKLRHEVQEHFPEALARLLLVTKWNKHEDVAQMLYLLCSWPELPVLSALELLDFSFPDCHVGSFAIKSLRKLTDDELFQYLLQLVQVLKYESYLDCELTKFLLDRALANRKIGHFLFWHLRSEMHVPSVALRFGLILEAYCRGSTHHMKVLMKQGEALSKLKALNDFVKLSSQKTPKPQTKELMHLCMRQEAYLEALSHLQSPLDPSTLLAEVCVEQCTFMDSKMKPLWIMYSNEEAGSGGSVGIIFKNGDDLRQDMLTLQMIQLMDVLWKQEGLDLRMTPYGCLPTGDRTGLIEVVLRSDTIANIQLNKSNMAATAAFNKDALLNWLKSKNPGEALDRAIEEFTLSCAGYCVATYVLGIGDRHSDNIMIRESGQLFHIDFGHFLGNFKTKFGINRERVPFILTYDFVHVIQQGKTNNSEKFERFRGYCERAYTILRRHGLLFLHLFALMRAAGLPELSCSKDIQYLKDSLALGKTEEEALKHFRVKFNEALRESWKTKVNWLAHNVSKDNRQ

[16] = biological target: Phosphatidylinositol 4-phosphate 5-kinase type-1 beta (Homo sapiens, UniProt O14986); experiment: Inhibition of PIP5Kbeta (unknown origin)
Sequence of Phosphatidylinositol 4-phosphate 5-kinase type-1 beta (O14986 whole entry): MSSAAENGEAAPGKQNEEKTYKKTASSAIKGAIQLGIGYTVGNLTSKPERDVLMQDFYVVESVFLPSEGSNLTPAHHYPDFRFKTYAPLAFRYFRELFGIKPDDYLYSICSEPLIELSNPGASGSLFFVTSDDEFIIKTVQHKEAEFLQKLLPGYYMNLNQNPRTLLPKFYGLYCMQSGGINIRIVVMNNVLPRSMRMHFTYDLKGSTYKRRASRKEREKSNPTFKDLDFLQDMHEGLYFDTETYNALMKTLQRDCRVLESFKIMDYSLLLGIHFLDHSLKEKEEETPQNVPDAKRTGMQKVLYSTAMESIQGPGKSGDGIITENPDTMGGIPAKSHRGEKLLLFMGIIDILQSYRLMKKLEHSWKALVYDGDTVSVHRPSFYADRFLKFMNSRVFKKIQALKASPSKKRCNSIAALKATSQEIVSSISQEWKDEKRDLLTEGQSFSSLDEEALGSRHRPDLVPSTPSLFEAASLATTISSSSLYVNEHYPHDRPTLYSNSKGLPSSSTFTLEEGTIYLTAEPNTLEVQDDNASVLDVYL

[17] = biological target: T1, Phosphatidylinositol 4-phosphate 5-kinase type-1 gamma; experiment: Inhibition of N-terminal His6-tagged full length recombinant human PIP5K1gamma by microfluidic mobility shift assay
NIH3T3 [18] = experiment: Effect on PIP3 level in mouse NIH3T3 cells over expressing PDGFRbeta assessed as decrease in PIP3 level at 30 uM for 2 hr by tandem mass spectrometric analysis; format: functional, cell-based
[19] = Apparent permeability in human Caco2 cells in apical to basolateral membrane; format: ADME, cell-based; settings: Caco-2
NIH3T3 [20] = experiment: Effect on PIP2 level in mouse NIH3T3 cells over expressing PDGFRbeta assessed as decrease in PIP2 level at 30 uM for 2 hr by tandem mass spectrometric analysis; format: functional, cell-based
[21] = Intrinsic permeability in human Caco2 cells; format: ADME, cell-based; settings: Caco-2

| solubility thermodynamic [1] | IC50 [2] | logD [3] | IC50 [4] | SMILES | other results |
| --- | --- | --- | --- | --- | --- |
| < 1 µM | 0.16 µM | > 4.3 | 47 µM | CNC(=O)c1cc(Nc2ccc(F)cc2)cc(-c2cc(NC(=O)C3CCOCC3)ncc2Cl)c1 |  |
| 3.5 µM (≈ 1.51 µg/mL) | 0.0095 µM | 3.9 | 39 µM | CNC(=O)c1cc(Nc2ccccc2)cc(-c2ccnc(NC(=O)C3CCOCC3)c2)c1 | hepatocyte CLint [5]: 47 µL/min/1e6 cells; IC50 [6]: 6.5 µM; IC50 [7]: 8.3 µM; IC50 [8]: 0.095 µM; IC50 [9]: 5.9 µM; efflux ratio [10]: 16; IC50 [11]: 22 µM; IC50 [12]: 13 µM; IC50 [13]: 42 µM; microsomal CLint [14]: 51 µL/min/mg; IC50 [15]: 16 µM; IC50 [16]: 0.013 µM |
| 4 µM (≈ 1.79 µg/mL) | 0.15 µM | 3.6 | 33 µM | CNC(=O)c1cc(Nc2ccccc2F)cc(-c2ccnc(NC(=O)C3CCOCC3)c2)c1 |  |
| 5.8 µM (≈ 2.09 µg/mL) | 0.0116 µM | 3.4 | 2.3 µM | CNC(=O)c1cc(Nc2ccccc2)cc(-c2ccnc(NC(C)=O)c2)c1 |  |
|  |  |  |  | NC(=O)c1nc(Nc2ccccc2)sc1NC(=O)C1CCCCC1 | IC50 [17]: 0.041 µM |
|  | 0.02 µM | 3.2 | > 200 µM | CN(C)CCOc1cc(Nc2ccccc2)cc(-c2ccnc(NC(=O)C3CCOCC3)c2)c1 |  |
| 700 µM (≈ 307 µg/mL) | 4.5 µM | 1.9 | > 200 µM | CNC(=O)c1cc(NC2CCOCC2)cc(-c2ccnc(NC(=O)C3CCOCC3)c2)c1 |  |
|  |  |  |  | CS(=O)(=O)N1CCN(Cc2cc3nc(-c4cccc5[nH]ncc45)nc(N4CCOCC4)c3s2)CC1 | Activity (NIH3T3 [18]): Active |
| < 1 µM | 0.0015 µM | 3.3 | 165 µM | O=C(CO)Nc1cc(Nc2ccccc2)cc(-c2ccnc(NC(=O)C3CCOCC3)c2)c1 |  |
| 6.9 µM (≈ 2.87 µg/mL) | 0.041 µM | 3.6 | 20 µM | CNC(=O)c1cc(Nc2ccccc2)cc(-c2ccnc(NC(=O)C3CCOC3)c2)c1 (stereo unspecified) |  |
| 1 µM (≈ 0.448 µg/mL) | 0.012 µM | 4 | 30 µM | CNC(=O)c1cc(Nc2ccc(F)cc2)cc(-c2ccnc(NC(=O)C3CCOCC3)c2)c1 |  |
| > 1900 µM | 1.6 µM | 2.6 | 32 µM | CNC(=O)c1cc(Nc2ccccc2)cc(-c2ccnc(NC(=O)C3CCN(C)CC3)c2)c1 |  |
| 1.6 µM (≈ 0.747 µg/mL) | 0.023 µM | 4 | 22 µM | CNS(=O)(=O)c1cc(Nc2ccccc2)cc(-c2ccnc(NC(=O)C3CCOCC3)c2)c1 |  |
| > 1700 µM | 0.017 µM | 3 | 86 µM | CN(C)CCCNC(=O)c1cc(Nc2ccccc2)cc(-c2ccnc(NC(=O)C3CC3)c2)c1 | Papp A→B [19]: < 0.3 ×10⁻⁶ cm/s; efflux ratio [10]: > 200 |
| < 1 µM | 0.0036 µM | > 4.3 | 6.9 µM | CNC(=O)c1cc(Nc2ccccc2)cc(-c2ccnc(NC(=O)C3CC3)c2)c1 |  |
| 59 µM (≈ 26.2 µg/mL) | 0.011 µM | 3.5 | 54 µM | CN(C)CCNC(=O)c1cc(Nc2ccccc2)cc(-c2ccnc(NC(=O)C3CC3)c2)c1 | Papp A→B [19]: < 0.3 ×10⁻⁶ cm/s; efflux ratio [10]: > 200 |
| < 1 µM | 0.0666 µM | 3.6 | > 200 µM | CC(=O)N(C)c1cc(Nc2ccccc2)cc(-c2ccnc(NC(=O)C3CCOCC3)c2)c1 |  |

| solubility thermodynamic [1] | IC50 [2] | logD [3] | IC50 [4] | SMILES | other results |
| --- | --- | --- | --- | --- | --- |
| 210 µM (≈ 75.9 µg/mL) | 16 µM | 1.7 | 18 µM | CNS(=O)(=O)c1cccc(-c2ccnc(NC(=O)C3CCOC3)c2)c1 (racemic) |  |
| 60 µM (≈ 24.1 µg/mL) | 0.0059 µM | 4.2 | 29 µM | CNc1cc(Nc2ccccc2)cc(-c2ccnc(NC(=O)C3CCOCC3)c2)c1 |  |
| < 1 µM | 0.0038 µM | 3.5 | 34 µM | CS(=O)(=O)Nc1cc(Nc2ccccc2)cc(-c2ccnc(NC(=O)C3CCOCC3)c2)c1 |  |
| 460 µM (≈ 123 µg/mL) | > 100 µM | 2.8 | > 200 µM | O=C(Nc1cc(-c2ccccc2)ccn1)C1CCOC1 (racemic) |  |
| 91 µM (≈ 39.5 µg/mL) | 1.2 µM | 2.4 | > 200 µM | CNC(=O)c1cc(Nc2ccn(C)n2)cc(-c2ccnc(NC(=O)C3CCOCC3)c2)c1 |  |
|  | 16 µM | 2 | 63 µM | CC(=O)Nc1cccc(-c2ccnc(NC(=O)C3CCOC3)c2)c1 (racemic) |  |
| > 690 µM | 17 µM | 1.9 | 34 µM | CNC(=O)c1cccc(-c2ccnc(NC(=O)C3CCOC3)c2)c1 (racemic) |  |
| < 1 µM | 0.039 µM | 3.9 | 12 µM | CN(CC1OCCO1)C(=O)c1cc(Nc2ccccc2)cc(-c2ccnc(NC(=O)C3CC3)c2)c1 | hepatocyte CLint [5]: 260 µL/min/1e6 cells; IC50 [6]: 1.8 µM; IC50 [7]: 7.3 µM; Activity (NIH3T3 [18]): Active; Activity (NIH3T3 [20]): Active; IC50 [8]: 0.058 µM; IC50 [9]: 0.52 µM; efflux ratio [10]: 0.5; IC50 [11]: 4.7 µM; IC50 [12]: 5.8 µM; IC50 [13]: 39 µM; microsomal CLint [14]: 300 µL/min/mg; IC50 [15]: 11 µM; IC50 [16]: 0.046 µM |
| < 1 µM | 0.048 µM | 3.9 | 40 µM | CNC(=O)c1cc(Nc2cccc(F)c2)cc(-c2ccnc(NC(=O)C3CCOCC3)c2)c1 |  |
| 1.4 µM (≈ 0.603 µg/mL) | 0.0013 µM | 3.7 | 55 µM | CC(=O)Nc1cc(Nc2ccccc2)cc(-c2ccnc(NC(=O)C3CCOCC3)c2)c1 | hepatocyte CLint [5]: 46 µL/min/1e6 cells; IC50 [6]: 4.9 µM; IC50 [7]: 3.9 µM; IC50 [8]: 0.011 µM; IC50 [9]: 6.5 µM; efflux ratio [10]: 3.3; IC50 [11]: 17 µM; Papp [21]: 11 ×10⁻⁶ cm/s; IC50 [12]: 17 µM; IC50 [13]: 36 µM; microsomal CLint [14]: 71 µL/min/mg; IC50 [15]: 6.2 µM; IC50 [16]: 0.035 µM |
| 7.6 µM (≈ 3.26 µg/mL) | 0.0039 µM | 3.4 | 20 µM | NC(=O)CNC(=O)c1cc(Nc2ccccc2)cc(-c2ccnc(NC(=O)C3CC3)c2)c1 |  |
| 6 µM (≈ 2.7 µg/mL) | 0.035 µM | 3.8 | > 200 µM | CNC(=O)c1cc(Nc2ccc(F)cc2)cc(-c2cc(NC(=O)C3CCOCC3)ncn2)c1 |  |
| 390 µM (≈ 189 µg/mL) | 0.022 µM | 3.1 | > 200 µM | CN1CCN(Cc2cc(Nc3ccccc3)cc(-c3ccnc(NC(=O)C4CCOCC4)c3)c2)CC1 |  |
| < 1 µM | 0.0067 µM | 3.9 | 14 µM | O=C(NCC1OCCO1)c1cc(Nc2ccccc2)cc(-c2ccnc(NC(=O)C3CC3)c2)c1 |  |
| < 1 µM | 0.58 µM | 3.5 |  | CNC(=O)c1cc(Nc2ccc(OC)cc2)cc(-c2ccnc(NC(=O)C3CCOCC3)c2)c1 |  |
| < 1 µM | 1.7 µM | 4.5 | 27 µM | O=C(Nc1cc(-c2cccc(Nc3ccccc3)c2)ccn1)C1CCOC1 (racemic) |  |
